Results published in patent US20220041582A1, “ISOXAZOLINE COMPOUNDS FOR CONTROLLING INVERTEBRATE PESTS” (FMC Corporation, priority 2018, published 2022).
Read-outs that look alike come from different tables or passages of the source.

What was measured:
Format in all cases: in vivo
[1] = tested on: cotton melon aphid (Aphis gossypii (Glover)); experiment: Test F: control of cotton melon aphid through contact and/or systemic means; settings: 144 h
Description: (§1) Formulation and Spray Methodology for Tests A-H
(§2) Test compounds were formulated using a solution containing 10% acetone, 90% water and 300 ppm Activator 90® non-ionic surfactant (Loveland Products, Loveland, Colo., USA). The formulated compounds were applied in 1 mL of liquid through an atomizer nozzle positioned 1.27 cm (0.5 inches) above the top of each test unit. Test compounds were sprayed at the rates indicated, and each test was replicated three times.
[…] This was pre-infested with 30-40 insects on a piece of leaf according to the cut-leaf method, and the soil of the test unit was covered with a layer of sand.
Test compounds were formulated and sprayed at 250, 50 and 10 ppm. After spraying, the test units were maintained in a growth chamber for 6 days at 19° C. and 70% relative humidity. Each test unit was then visually assessed for insect mortality.

[2] = tested on: green peach aphid (Myzus persicae (Sulzer)); experiment: Test E: control of green peach aphid through contact and/or systemic means; settings: 144 h
Description: as §1, §2
For evaluating control of green peach aphid (Myzus persicae (Sulzer)) through contact and/or systemic means, the test unit consisted of a small open container with a 12-15-day-old radish plant inside. This was pre-infested by placing on a leaf of the test plant 30-40 aphids on a piece of leaf excised from a culture plant (cut-leaf method). The aphids moved onto the test plant as the leaf piece desiccated. After pre-infestation, the soil of the test unit was covered with a layer of sand.
Test compounds were formulated and sprayed at 250, 50 and 10 ppm. After spraying of the formulated test compound, each test unit was allowed to dry for 1 hour and then a black, screened cap was placed on top. The test units were held for 6 days in a growth chamber at 19-21° C. and 50-70% relative humidity. Each test unit was then visually assessed for insect mortality.

[3] = tested on: sweetpotato whitefly (Bemisia tabaci (Gennadius)); experiment: Test G: control of sweetpotato whitefly through contact and/or systemic means; settings: 312 h
Description: as §1, §2
For evaluating control of the sweetpotato whitefly (Bemisia tabaci (Gennadius)) through contact and/or systemic means, the test unit consisted of a small open container with a 12-14-day-old cotton plant inside. Prior to the spray application, both cotyledons were removed from the plant, leaving one true leaf for the assay. Adult whiteflies were allowed to lay eggs on the plant and then were removed from the test unit. Cotton plants infested with at least 15 eggs were submitted to the test for spraying.
Test compounds were formulated and sprayed at 250, 50 and 10 ppm. After spraying, the test units were allowed to dry for 1 hour. The cylinders were then removed, and the units were taken to a growth chamber and held for 13 days at 28° C. and 50-70% relative humidity. Each test unit was then visually assessed for insect mortality.

[4] = tested on: potato leafhopper (Empoasca fabae (Harris)); experiment: Test D: control of potato leafhopper through contact and/or systemic means; settings: 144 h
Description: as §1, §2
[…] White sand was added to the top of the soil, and one of the primary leaves was excised prior to application of the test compound.
Test compounds were formulated and sprayed at 250, 50 and 10 ppm. After spraying of the formulated test compound, the test units were allowed to dry for 1 hour before they were post-infested with 5 potato leafhoppers (18-to-21-day-old adults). A black, screened cap was placed on the top of the test unit, and the test units were held for 6 days in a growth chamber at 20° C. and 70% relative humidity. Each test unit was then visually assessed for insect mortality.

[5] = 10 ppm spray, 6 days, read-out: mortality
[6] = 50 ppm spray, 6 days, read-out: mortality

With `O=C(NCC1CC1)c1ccc(C2=NOC(c3cccc(C(F)(F)F)c3)(C(F)(F)F)C2)c2ccncc12` (racemic) [Compound 17, N-(cyclopropylmethyl)-5-[4,5-dihydro-5-(trifluoromethyl)-5-[3-(trifluoromethyl)phenyl]-3-isoxazolyl]-8-isoquinolinecarboxamide] as the molecule, how does the mortality at 10 ppm [1, 5] read?
Its mortality at 10 ppm is no less than 80%.

And the mortality at 50 ppm [1, 6]?
Its mortality at 50 ppm is no less than 80%.

And the mortality at 10 ppm [2, 5]?
Its mortality at 10 ppm is no less than 80%.

What about the mortality at 50 ppm [2, 6] of the same molecule?
The mortality at 50 ppm was no less than 80%.

Which results are given for `O=C(NCC1CC1)c1ccc(C2=NOC(c3cc(Cl)c(F)c(Cl)c3)(C(F)(F)F)C2)c2ccncc12` (stereo not shown) [Compound 3, N-(cyclopropylmethyl)-5-[5-(3,5-dichloro-4-fluorophenyl)-4,5-dihydro-5-(trifluoromethyl)-3-isoxazolyl]-8-isoquinolinecarboxamide]?
mortality at 10 ppm [1]: ≥ 80%; mortality at 50 ppm [1]: ≥ 80%; mortality at 10 ppm [3]: ≥ 50%; mortality at 50 ppm [3]: ≥ 50%; mortality at 10 ppm [2]: ≥ 80%; mortality at 50 ppm [2]: ≥ 80%

For `CSC[C@@H](C)NC(=O)c1ccc(C2=NOC(c3cc(Cl)c(F)c(Cl)c3)(C(F)(F)F)C2)c2ccncc12` (stereo partly shown) [Compound 8], which mortality at 50 ppm [1] is on record?
Its mortality at 50 ppm is no less than 80%.

For `C[S+]([O-])CCNC(=O)c1ccc(C2=NOC(c3cc(Cl)c(F)c(Cl)c3)(C(F)(F)F)C2)c2ccncc12` (stereo not shown) [Compound 11], which mortality at 50 ppm [1] is on record?
The mortality at 50 ppm was no less than 80%.

What about the mortality at 10 ppm [4] of the same molecule?
Its mortality at 10 ppm is no less than 80%.

What about the mortality at 50 ppm [4] of the same molecule?
Its mortality at 50 ppm is no less than 80%.

What about the mortality at 50 ppm [2] of the same molecule?
The mortality at 50 ppm was no less than 80%.

How did the mortality at 50 ppm [1] turn out when `CS(=O)(=O)CCNC(=O)c1ccc(C2=NOC(c3cc(Cl)c(F)c(Cl)c3)(C(F)(F)F)C2)c2ccncc12` (stereo not shown) [Compound 12] was run?
Its mortality at 50 ppm is no less than 80%.

`C[C@H](C[S+](C)[O-])NC(=O)c1ccc(C2=NOC(c3cc(Cl)c(F)c(Cl)c3)(C(F)(F)F)C2)c2ccncc12` (stereo partly shown) [Compound 14] was tested. Which mortality at 50 ppm [4] did it give?
The mortality at 50 ppm was no less than 80%.

How did the mortality at 50 ppm [2, 6] turn out when `O=C(NC1CC1)c1ccc(C2=NOC(c3cccc(C(F)(F)F)c3)(C(F)(F)F)C2)c2ccncc12` (stereo not shown) [Compound 16, N-cyclopropyl-5-[4,5-dihydro-5-(trifluoromethyl)-5-[3-(trifluoromethyl)phenyl]-3-isoxazolyl]-8-isoquinolinecarboxamide] was run?
Its mortality at 50 ppm is no less than 80%.

`CS(=O)(=O)CCNC(=O)c1ccc(C2=NOC(c3cccc(C(F)(F)F)c3)(C(F)(F)F)C2)c2ccncc12` (stereo not shown) [Compound 19] was tested. Which mortality at 50 ppm [1, 6] did it give?
The mortality at 50 ppm was no less than 80%.

And the mortality at 50 ppm ([3]; 50 ppm spray, 13 days, read-out: mortality)?
The mortality at 50 ppm was no less than 50%.

Which mortality at 50 ppm [1, 6] does the source give for `C[C@@H](NC(=O)c1ccc(C2=NOC(c3cccc(C(F)(F)F)c3)(C(F)(F)F)C2)c2ccncc12)C(N)=O` (stereo partly shown) [Compound 25] here?
Its mortality at 50 ppm is no less than 80%.

With `O=C(NCC1CCCO1)c1ccc(C2=NOC(c3cc(Cl)c(F)c(Cl)c3)(C(F)(F)F)C2)c2ccncc12` (stereo not shown) [Compound 26] as the molecule, how does the mortality at 50 ppm [1] read?
The mortality at 50 ppm was no less than 80%.

And the mortality at 50 ppm [3]?
Its mortality at 50 ppm is no less than 50%.

Which results are given for `CNC(=O)c1ccc(C2=NOC(c3cc(Cl)c(F)c(Cl)c3)(C(F)(F)F)C2)c2ccncc12` (stereo not shown) [Compound 27]?
mortality at 50 ppm [1]: ≥ 80%; mortality at 50 ppm [2]: ≥ 80%

With `C[S+]([O-])CCNC(=O)c1ccc(C2=NOC(c3cccc(C(F)(F)F)c3)(C(F)(F)F)C2)c2ccncc12` (stereo not shown) [Compound 30] as the molecule, how does the mortality at 50 ppm [1, 6] read?
The mortality at 50 ppm was no less than 80%.

With `C[C@@H](NC(=O)c1ccc(C2=NOC(c3cc(Cl)cc(C(F)(F)F)c3)(C(F)(F)F)C2)c2ccncc12)C(N)=O` (stereo partly shown) [Compound 40] as the molecule, how does the mortality at 50 ppm [1] read?
The mortality at 50 ppm was no less than 80%.

`O=C(NC1CSC1)c1ccc(C2=NOC(c3cc(Cl)c(F)c(Cl)c3)(C(F)(F)F)C2)c2ccncc12` (stereo not shown) [Compound 43] was tested. Which mortality at 50 ppm [1] did it give?
Its mortality at 50 ppm is no less than 80%.

And the mortality at 50 ppm [4]?
The mortality at 50 ppm was no less than 80%.

What does the source list for `CCNC(=O)c1ccc(C2=NOC(c3cc(Cl)c(F)c(Cl)c3)(C(F)(F)F)C2)c2ccncc12` (stereo not shown) [Compound 46, 5-[5-(3,5-dichloro-4-fluorophenyl)-4,5-dihydro-5-(trifluoromethyl)-3-isoxazolyl]-N-ethyl-8 soquinolinecarboxamide]?
mortality at 10 ppm [1]: ≥ 80%; mortality at 50 ppm [1]: ≥ 80%

What does the source list for `C[C@@H](NC(=O)c1ccc(C2=NOC(c3cc(Cl)c(F)c(Cl)c3)(C(F)(F)F)C2)c2ccncc12)C(=O)NCC(F)(F)F` (stereo partly shown) [Compound 56]?
mortality at 50 ppm [1]: ≥ 80%; mortality at 50 ppm [3]: ≥ 50%; mortality at 50 ppm [2]: ≥ 80%
